One experiment addresses BRD4 (BDI_K57-E168) (Homo sapiens (Human), UniProt O60885). As to the kind of experiment: TR-FRET bromodomain binding assay, BRD4 first bromodomain. The following applies: His-tagged BD1, Alexa647-labeled probe 100 nM. The method in brief:
(§1)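 Affinity for each isolated His-tagged domain was measured as competition with a fluorescent Alexa647 BET-inhibitor probe in a TR-FRET format at pH 6.0, 1 h room temperature incubation. Ki values were calculated from fitted IC50s, probe Kd and probe level (100 nM BDI, 30 nM BDII).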

The next experiment concerns the target BRD4 (BDII_E352-M457) (Homo sapiens (Human), UniProt O60885). As to the kind of experiment: TR-FRET bromodomain binding assay, BRD4 second bromodomain. As to conditions: His-tagged BD2, Alexa647-labeled probe 30 nM. The method in brief: as §1
In general terms: Time-resolved FRET reads energy transfer from a long-lived donor to a nearby acceptor.

In general, Ki refers to the dissociation constant of the complex between target and ligand, obtained from inhibition or displacement. Higher therefore signals a looser hold on the target. Turning to `CC(=O)Nc1ccc(CNc2cccc(Oc3ccc(S(C)(=O)=O)cc3-c3cn(C)c(=O)c4[nH]ccc34)c2)cc1` [Example 78, N-{4-[({3-[2-(6-methyl-7-oxo-6,7-dihydro-1H-pyrrolo[2,3-c]pyridin-4-yl)-4-(methylsulfonyl)phenoxy]phenyl}amino)methyl]phenyl}acetamide], the inhibition constant (Ki) came out at 0.0009 µM at BRD4 (BDI_K57-E168) and 0.0006 µM at BRD4 (BDII_E352-M457).

In the case of `Cn1cc(-c2cc(S(C)(=O)=O)ccc2Oc2ccc(F)cc2F)c2cc(CN3CCCN(c4ccccn4)CC3)[nH]c2c1=O` [Example 126, 4-[2-(2,4-difluorophenoxy)-5-(methylsulfonyl)phenyl]-6-methyl-2-{[4-(pyridin-2-yl)-1,4-diazepan-1-yl]methyl}-1,6-dihydro-7H-pyrrolo[2,3-c]pyridin-7-one], the Ki at BRD4 (BDI_K57-E168) amounted to 0.0545 µM; on BRD4 (BDII_E352-M457), 0.276 µM.

For `Cn1cc(-c2cc(S(C)(=O)=O)ccc2Oc2cccc(NCc3cc(F)cc(F)c3)c2)c2cc[nH]c2c1=O` [Example 73, 4-[2-{3-[(3,5-difluorobenzyl)amino]phenoxy}-5-(methylsulfonyl)phenyl]-6-methyl-1,6-dihydro-7H-pyrrolo[2,3-c]pyridin-7-one], the Ki on BRD4 (BDI_K57-E168) stood at 0.0056 µM; at BRD4 (BDII_E352-M457), 0.0035 µM.

With `Cn1cc(-c2cc(S(C)(=O)=O)ccc2NC2CCN(C(=O)C3(C(N)=O)CC3)CC2)c2cc[nH]c2c1=O` [Example 93, 1-[(4-{[2-(6-methyl-7-oxo-6,7-dihydro-1H-pyrrolo[2,3-c]pyridin-4-yl)-4-(methylsulfonyl)phenyl]amino}piperidin-1-yl)carbonyl]cyclopropanecarboxamide], the Ki was 0.019 µM at BRD4 (BDI_K57-E168) and 0.024 µM at BRD4 (BDII_E352-M457).

Turning to `CCS(=O)(=O)Nc1cc(-c2cn(C)c(=O)c3[nH]ccc23)c(Oc2ccc(F)cc2F)cc1CNCCO` [Example 13, N-[4-(2,4-difluorophenoxy)-2-{[(2-hydroxyethyl)amino]methyl}-5-(6-methyl-7-oxo-6,7-dihydro-1H-pyrrolo[2,3-c]pyridin-4-yl)phenyl]ethanesulfonamide], the inhibition constant Ki at BRD4 (BDI_K57-E168) was 0.042 µM; on BRD4 (BDII_E352-M457), 0.0074 µM.

With `CCS(=O)(=O)c1ccc(OCC2CC2(F)F)c(-c2cn(C)c(=O)c3[nH]c(CN4CCN(c5nccs5)CC4)cc23)c1` (stereo not shown) [Example 17, 4-{2-[(2,2-difluorocyclopropyl)methoxy]-5-(ethylsulfonyl)phenyl}-6-methyl-2-{[4-(1,3-thiazol-2-yl)piperazin-1-yl]methyl}-1,6-dihydro-7H-pyrrolo[2,3-c]pyridin-7-one], the inhibition constant Ki at BRD4 (BDI_K57-E168) worked out at 0.0044 µM; on BRD4 (BDII_E352-M457), 0.06 µM.

Regarding `Cc1cccc(C)c1Oc1ccc(S(C)(=O)=O)cc1-c1cn(C)c(=O)c2[nH]c(-c3nc(-c4cccnc4)no3)cc12` [Example 138, 4-[2-(2,6-dimethylphenoxy)-5-(methylsulfonyl)phenyl]-6-methyl-2-[3-(pyridin-3-yl)-1,2,4-oxadiazol-5-yl]-1,6-dihydro-7H-pyrrolo[2,3-c]pyridin-7-one], the results for the Ki at BRD4 (BDI_K57-E168) and at BRD4 (BDII_E352-M457) were 0.0885 µM and 0.00738 µM, respectively.

For `Cc1cc(C)n(C2CN(Cc3cc4c(-c5cc(S(C)(=O)=O)ccc5Oc5ccc(F)cc5F)cn(C)c(=O)c4[nH]3)C2)n1` [Example 129, 4-[2-(2,4-difluorophenoxy)-5-(methylsulfonyl)phenyl]-2-{[3-(3,5-dimethyl-1H-pyrazol-1-yl)azetidin-1-yl]methyl}-6-methyl-1,6-dihydro-7H-pyrrolo[2,3-c]pyridin-7-one], the inhibitory constant (Ki) on BRD4 (BDI_K57-E168) was determined as 0.0159 µM; at BRD4 (BDII_E352-M457), 0.087 µM.

On to `CCNC(=O)c1cc2c(-c3ccc(C(=O)N(CCC(=O)OC)c4ccccc4)cc3Oc3c(C)cccc3C)cn(C)c(=O)c2[nH]1` [Example 160, methyl 3-[{3-(2,6-dimethylphenoxy)-4-[2-(ethylcarbamoyl)-6-methyl-7-oxo-6,7-dihydro-1H-pyrrolo[2,3-c]pyridin-4-yl]benzoyl}(phenyl)amino]propanoate], for which the Ki amounted to 1.71 µM at BRD4 (BDI_K57-E168) and 0.00999 µM on BRD4 (BDII_E352-M457).

As to `Cn1cc(-c2cc(S(C)(=O)=O)ccc2Oc2ccc(F)cc2F)c2cc(CN3CCN(C4CC4)CC3)[nH]c2c1=O` [Example 115, 2-[(4-cyclopropylpiperazin-1-yl)methyl]-4-[2-(2,4-difluorophenoxy)-5-(methylsulfonyl)phenyl]-6-methyl-1,6-dihydro-7H-pyrrolo[2,3-c]pyridin-7-one], the inhibition constant (Ki) at BRD4 (BDI_K57-E168) was found to be 0.00522 µM; at BRD4 (BDII_E352-M457), 0.12 µM.

As to `CCS(=O)(=O)c1ccc(Oc2c(C)cccc2Cl)c(-c2cn(C)c(=O)c3[nH]c(C(=O)NC(C)C(=O)NC)cc23)c1` (stereo not shown) [Example 121, 4-[2-(2-chloro-6-methylphenoxy)-5-(ethylsulfonyl)phenyl]-6-methyl-N-[1-(methylamino)-1-oxopropan-2-yl]-7-oxo-6,7-dihydro-1H-pyrrolo[2,3-c]pyridine-2-carboxamide], the values for the inhibition constant (Ki) on BRD4 (BDI_K57-E168) and on BRD4 (BDII_E352-M457) were 0.0621 µM and 0.0072 µM, respectively.

In the case of `CCNC(=O)c1cc2c(-c3ccc(C(=O)N(CC(=O)NC)Cc4ccccn4)cc3Oc3c(C)cccc3C)cn(C)c(=O)c2[nH]1` [Example 153, 4-[2-(2,6-dimethylphenoxy)-4-{[2-(methylamino)-2-oxoethyl](pyridin-2-ylmethyl)carbamoyl}phenyl]-N-ethyl-6-methyl-7-oxo-6,7-dihydro-1H-pyrrolo[2,3-c]pyridine-2-carboxamide], the inhibition constant Ki at BRD4 (BDI_K57-E168) is 1.04 µM; at BRD4 (BDII_E352-M457), 0.00261 µM.

Regarding `Cn1cc(-c2cc(S(C)(=O)=O)ccc2NC2CCN(Cc3cccs3)CC2)c2cc[nH]c2c1=O` [Example 89, 6-methyl-4-[5-(methylsulfonyl)-2-{[1-(thiophen-2-ylmethyl)piperidin-4-yl]amino}phenyl]-1,6-dihydro-7H-pyrrolo[2,3-c]pyridin-7-one], the results for the Ki on BRD4 (BDI_K57-E168) and at BRD4 (BDII_E352-M457) were 0.022 µM and 0.044 µM, respectively.

Turning to `Cn1cc(-c2cc(S(C)(=O)=O)ccc2Oc2cccc(NCC3CC3)c2)c2cc[nH]c2c1=O` [Example 80, 4-[2-{3-[(cyclopropylmethyl)amino]phenoxy}-5-(methylsulfonyl)phenyl]-6-methyl-1,6-dihydro-7H-pyrrolo[2,3-c]pyridin-7-one], the figures for the Ki at BRD4 (BDI_K57-E168) and on BRD4 (BDII_E352-M457) were 0.019 µM and 0.0046 µM, respectively.

Regarding `COc1cc(CN2CCC(Nc3ccc(S(C)(=O)=O)cc3-c3cn(C)c(=O)c4[nH]ccc34)CC2)cc(OC)c1OC` [Example 88, 6-methyl-4-[5-(methylsulfonyl)-2-{[1-(3,4,5-trimethoxybenzyl)piperidin-4-yl]amino}phenyl]-1,6-dihydro-7H-pyrrolo[2,3-c]pyridin-7-one], the inhibitory constant (Ki) is 0.0049 µM on BRD4 (BDI_K57-E168) and 0.023 µM on BRD4 (BDII_E352-M457).

Turning to `Cn1cc(-c2cc(S(C)(=O)=O)ccc2Oc2ccc(F)cc2F)c2cc(CN3CCC(N4CCOCC4)CC3)[nH]c2c1=O` [Example 130, 4-[2-(2,4-difluorophenoxy)-5-(methylsulfonyl)phenyl]-6-methyl-2-{[4-(morpholin-4-yl)piperidin-1-yl]methyl}-1,6-dihydro-7H-pyrrolo[2,3-c]pyridin-7-one], the Ki on BRD4 (BDI_K57-E168) is 0.0101 µM; on BRD4 (BDII_E352-M457), 0.108 µM.

For the compound `CCNC(=O)/C=C/c1cc2c(-c3cc(S(=O)(=O)CC)ccc3Oc3c(C)cccc3C)cn(C)c(=O)c2[nH]1` [Example 134, (2E)-3-{4-[2-(2,6-dimethylphenoxy)-5-(ethylsulfonyl)phenyl]-6-methyl-7-oxo-6,7-dihydro-1H-pyrrolo[2,3-c]pyridin-2-yl}-N-ethylprop-2-enamide], the inhibition constant Ki at BRD4 (BDI_K57-E168) worked out at 0.0234 µM; on BRD4 (BDII_E352-M457) it was 0.00162 µM.

Turning to `CC(=O)Nc1ccc(CN2CCC(Nc3ccc(S(C)(=O)=O)cc3-c3cn(C)c(=O)c4[nH]ccc34)CC2)cc1` [Example 87, N-{4-[(4-{[2-(6-methyl-7-oxo-6,7-dihydro-1H-pyrrolo[2,3-c]pyridin-4-yl)-4-(methylsulfonyl)phenyl]amino}piperidin-1-yl)methyl]phenyl}acetamide], the Ki at BRD4 (BDI_K57-E168) was found to be 0.021 µM; at BRD4 (BDII_E352-M457), 0.034 µM.

In the case of `CCNC(=O)c1cc2c(-c3ccc(C(=O)N(C)C4CCN(OC(=O)CC)CC4)cc3Oc3c(C)cccc3C)cn(C)c(=O)c2[nH]1` [Example 154, 4-[2-(2,6-dimethylphenoxy)-4-{methyl[1-(propanoyloxy)piperidin-4-yl]carbamoyl}phenyl]-N-ethyl-6-methyl-7-oxo-6,7-dihydro-1H-pyrrolo[2,3-c]pyridine-2-carboxamide], the Ki turned out to be 1.04 µM on BRD4 (BDI_K57-E168) and 0.0137 µM on BRD4 (BDII_E352-M457).

On to `CCS(=O)(=O)c1ccc(OCC2CC2(F)F)c(-c2cn(C)c(=O)c3[nH]c(CN4CCN(c5cnccn5)CC4)cc23)c1` (stereo not shown) [Example 18, 4-{2-[(2,2-difluorocyclopropyl)methoxy]-5-(ethylsulfonyl)phenyl}-6-methyl-2-{[4-(pyrazin-2-yl)piperazin-1-yl]methyl}-1,6-dihydro-7H-pyrrolo[2,3-c]pyridin-7-one], for which the Ki on BRD4 (BDI_K57-E168) was determined as 0.0044 µM; on BRD4 (BDII_E352-M457) it was 0.048 µM.

For `Cn1cc(-c2cc(S(C)(=O)=O)ccc2Oc2cccc(NCc3cccc(F)c3)c2)c2cc[nH]c2c1=O` [Example 68, 4-[2-{3-[(3-fluorobenzyl)amino]phenoxy}-5-(methylsulfonyl)phenyl]-6-methyl-1,6-dihydro-7H-pyrrolo[2,3-c]pyridin-7-one], the Ki on BRD4 (BDI_K57-E168) came to 0.01 µM; at BRD4 (BDII_E352-M457), 0.0047 µM.

On to `Cn1cc(-c2cc(S(C)(=O)=O)ccc2Oc2ccc(F)cc2F)c2cc(CN3CC(n4cncn4)C3)[nH]c2c1=O` [Example 156, 4-[2-(2,4-difluorophenoxy)-5-(methylsulfonyl)phenyl]-6-methyl-2-{[3-(1H-1,2,4-triazol-1-yl)azetidin-1-yl]methyl}-1,6-dihydro-7H-pyrrolo[2,3-c]pyridin-7-one], for which the Ki was 0.0268 µM at BRD4 (BDI_K57-E168) and 0.0423 µM on BRD4 (BDII_E352-M457).

Regarding `Cn1cc(-c2cc(S(C)(=O)=O)ccc2Oc2cccc(NS(=O)(=O)Cc3ccccc3)c2)c2cc[nH]c2c1=O` [Example 38, N-{3-[2-(6-methyl-7-oxo-6,7-dihydro-1H-pyrrolo[2,3-c]pyridin-4-yl)-4-(methylsulfonyl)phenoxy]phenyl}-1-phenylmethanesulfonamide], the inhibition constant (Ki) at BRD4 (BDI_K57-E168) stood at 0.0051 µM; at BRD4 (BDII_E352-M457), 0.0019 µM.

(Values after patent US9957263B2, “Bromodomain inhibitors” (AbbVie Inc., priority 2013, dated 2018).)
